In patent publication US11154519B2, “Inhibitors and their uses” (MEDICAL RESEARCH COUNCIL, priority 2015, dated 2021):
Read-outs that look alike come from different tables or passages of the source.

What was measured:
PPP1R15A-PP1 complex = biological target: T1, PPP1R15A-PP1 complex (Homo sapiens, UniProt O75807); test: SPR steady-state binding to R15A-PP1 holophosphatase
T1 construct: cDNAs encoding amino acids 325-636 of PPP1R15A and 340-698 of PPP1R15B were His-tagged and cloned into pMAL-c5x; made in house; host or cells: R15A: E. coli BL21-Gold (pMAL-c5x); PP1γ: Sf9 insect cells (baculovirus, pDW464)
Procedure: (§1) PPP1R15A^325-636 and PPP1R15B^340-698 were expressed and purified as follows: the cDNAs encoding amino acids 325-636 of PPP1R15A and 340-698 of PPP1R15B were His-tagged and cloned into pMAL-c5x. Recombinant PPP1R15A/B were expressed in BL21-Gold cells and purified by affinity chromatography on a HisTrap HP column (GE Healthcare), followed by a MBPTrap HP column (GE Healthcare). The proteins were analyzed on BOLT SDS-PAGE 4-12% Bis-Tris gels (Life Technologies) stained with SimplyBlue SafeStain (Life Technologies). cDNA encoding for human PP1γ was cloned into the baculovirus transfer vector pDW464 to add a biotin acceptor peptide (BAP). The vector also encodes for the E. coli biotin holoenzyme synthetase (BirA), so that BAP-tagged proteins can be biotinylated in vivo in Spodoptere frugiperda (Sf9) insect cells (Duffy et al., Anal. Biochem., 262, 122-128, 1998). The Bac-to-Bac baculovirus expression system (Life Technologies) was used to generate the recombinant bacmid DNA and Sf9 insect cells were used to amplify the viral stocks Cultures were harvested by centrifuging at 1,200 g for 15 minutes, cell pellets were resuspended in lysis buffer (50 mM Tris pH 7.4, 150 mM NaCl, 0.2% Triton, 5% Glycerol, 1 PiC tablet (Roche) per 50 ml and 0.2 mM PMSF) and followed by gentle sonication. The protein was first purified on a 5 ml HiTrap Q HP column (GE Healthcare) followed by a HiLoad 16/600 Superdex 200 column (GE Healthcare). The positive fractions confirmed by SDS-PAGE and western blot were pooled, concentrate to ˜1 μM and stored at −80° C.
(§2) A Biacore T200 (GE Healthcare) system was used for all experiments and biotinylated PP1 was captured using a Sensor Chip SA (GE Healthcare, catalog no BR-1005-31). The streptavidin coated surface was activated by 1 min injection with a solution of 50 mM NaOH and 1 M NaCl. Biotin-PP1 was diluted in the running buffer (50 mM Tris pH 7.5, 100 mM NaCl, 0.1 mM EGTA, 1 mM MnCl2, 0.05% Tween 20) and injected at approximately 300 nM concentration directly to streptavidin coated surface for 100 sec or to reach immobilization level of biotin-PP1 corresponding to ˜7000 RU. A blank immobilization was performed for one of the SA sensor chip surface to use as a reference.
(§3) With minor deviations, the same procedure and conditions were used in all binding experiments. Small molecules were stored as 50 mM stock solutions in 100% DMSO. Prior to determining binding constants, serial dilutions of either 12 or 8 concentrations of the compounds were prepared in the running buffer in a 96-well plate. Prior to each compound dilution series the regulatory subunit, R15A or R15B, was diluted to […] in the running buffer and captured on the biotin-PP1 surface, to form the holophosphatase complex on the sensor chip surface. Then, without regenerating the surface, the compound dilution series was injected onto the surface of the chip Sensorgrams were analyzed using the Biacore T200 evaluation software and the binding constants determined based on a steady-state model. Kinetic experiments are carried out using different concentrations of the compound and their respective equilibrium binding levels determined.
(§4) Surface Plasmon Resonance (SPR) was used to measure the binding affinity of compounds to the PPP1R15A/B-PP1 phosphatase complex. Biotin acceptor peptide (BAP) was fused to the N-terminus of PP1γ, which enables the biotinylation of the BAP-tagged protein in Sf9 insect cells. After purification the BAP-PP1γ protein was captured on a streptavidin sensor chip (SA-chip, GE healthcare) to a response level of ˜5.000 RU. Using controlled biotinylation enables orientated and uniform immobilization on the sensor chip surface. The PP1γ was then used to capture PPP1R15A/B and form a holophosphatase complex on the surface of the streptavidin chip. This complex can then be used to test binding of compounds. 10 μM PPP1R15A/B protein concentration was used to form the holophosphatase complex during a 80 s injection. […]

R15A or R15B = test: Selective binding towards R15A or R15B (based on SPR); set-up: species or system human
Procedure: In one embodiment, the compounds of formula IB inhibit PPP1R15A and PPP1R15B. Inhibition of PPP1R15A and PPP1R15B can be determined from binding analysis. For example, binding can be analysed using SPR (surface plasmon resonance) to obtain KD values. A PPP1R15A and PPP1R15B inhibitor may be defined as a compound where the difference in KD values between R15A and R15B is no more than about 3 fold.
Small molecules were stored as 50 mM stock solutions in 100% DMSO. Prior to determining binding constants, serial dilutions of either 12 or 8 concentrations of the compounds were prepared in the running buffer in a 96-well plate. Prior to each compound dilution series the regulatory subunit, MBP-R15A^325-636-His or MBP-R15B^340-698-His, was diluted to 10 μM in the running buffer and captured on the bio-PP1c surface at a flow rate of 30 μl/min for 1 minute to form the holophosphatase complex on the sensor chip surface. This was followed by 1 minute stabilization period, to wash off any unspecific binding. Then, without regenerating the surface, the compound dilution series was injected onto the surface of the chip at a flow rate of 30 μl/min for 1 minute, followed by 2 minutes dissociation time. After each dilution series the surface was regenerated using 3 M NaCl for 90 seconds. After regeneration, SPR responses generally returned to base levels and the bio-PP1c surface was ready for the next compound dilution series. In order to be able to correct for small variations in DMSO concentration between samples, eight solvent samples ranging from 0.06 to 8% DMSO were injected every 50th cycle. The flow cell temperature was 10° C.
Sensorgrams were analyzed using the Biacore T200 evaluation software and the binding constants determined based on a steady-state model. Kinetic experiments are carried out using different concentrations of the compound and their respective equilibrium binding levels determined.

PPP1R15B-PP1 = biological target: T2, PPP1R15B-PP1 (Homo sapiens, UniProt Q5SWA1); test: SPR steady-state binding to R15B-PP1 holophosphatase
T2 construct: cDNAs encoding amino acids 325-636 of PPP1R15A and 340-698 of PPP1R15B were His-tagged and cloned into pMAL-c5x; made in house; host or cells: R15B: E. coli BL21-Gold (pMAL-c5x); PP1γ: Sf9 insect cells (baculovirus, pDW464)
Procedure: as §1, §2, §3, §4

[1] = SPR steady-state, MBP-R15A325-636-His captured on bio-PP1c, 10° C., read-out: R15A (KD)
[2] = SPR steady-state, MBP-R15B340-698-His captured on bio-PP1c, 10° C., read-out: R15B (KD)

T2 sequence (Q5SWA1 340-698): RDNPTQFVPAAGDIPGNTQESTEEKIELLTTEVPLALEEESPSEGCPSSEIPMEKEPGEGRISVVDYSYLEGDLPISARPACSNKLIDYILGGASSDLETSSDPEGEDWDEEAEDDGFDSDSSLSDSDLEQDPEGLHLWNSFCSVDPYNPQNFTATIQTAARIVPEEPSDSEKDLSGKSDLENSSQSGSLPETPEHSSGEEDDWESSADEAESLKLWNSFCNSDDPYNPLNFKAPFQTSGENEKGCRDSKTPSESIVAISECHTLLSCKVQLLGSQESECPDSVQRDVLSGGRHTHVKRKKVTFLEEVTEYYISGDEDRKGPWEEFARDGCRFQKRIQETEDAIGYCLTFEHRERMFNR
T2 sequence (P36873 whole entry partner, the tested form may be a part): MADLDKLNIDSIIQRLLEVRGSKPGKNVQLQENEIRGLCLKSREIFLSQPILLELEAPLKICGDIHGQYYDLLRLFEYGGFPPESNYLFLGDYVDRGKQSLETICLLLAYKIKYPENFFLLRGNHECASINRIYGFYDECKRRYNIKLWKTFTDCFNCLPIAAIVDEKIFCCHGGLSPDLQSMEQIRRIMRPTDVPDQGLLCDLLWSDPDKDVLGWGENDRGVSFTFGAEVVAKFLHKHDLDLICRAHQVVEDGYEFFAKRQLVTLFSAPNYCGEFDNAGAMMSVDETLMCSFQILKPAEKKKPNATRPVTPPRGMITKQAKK
T1 sequence (O75807 325-636): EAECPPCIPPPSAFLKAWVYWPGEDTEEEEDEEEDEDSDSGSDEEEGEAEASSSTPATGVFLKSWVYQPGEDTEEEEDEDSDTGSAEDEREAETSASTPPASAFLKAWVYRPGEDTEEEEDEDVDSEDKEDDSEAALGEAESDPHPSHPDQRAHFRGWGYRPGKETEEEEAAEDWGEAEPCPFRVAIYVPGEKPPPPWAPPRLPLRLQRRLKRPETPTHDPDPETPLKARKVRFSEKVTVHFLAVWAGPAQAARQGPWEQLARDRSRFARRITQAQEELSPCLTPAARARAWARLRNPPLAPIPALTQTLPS
T1 sequence (P36873 whole entry partner, the tested form may be a part): as the sequence (P36873 whole entry partner, the tested form may be a part) above

Row | Compound | Kd (PPP1R15A-PP1 complex; [1]) [µM] | Selective binding towards R15A or R15B (based on SPR) (R15A or R15B) | Kd (PPP1R15B-PP1; [2]) [µM] | Kd (PPP1R15A-PP1 complex; SPR, FIG. 1, read-out: KD for PPP1R15A-PP1) [µM] | Kd (PPP1R15B-PP1; SPR, FIG. 1, read-out: KD for PPP1R15B-PP1) [µM]
1 | [H]/N=C(\N)NN=Cc1ccc(Cl)c(F)c1 [Compound 8, (E)-2-(4-chloro-3-fluorobenzylidene)hydrazine-1-carboximidamide] | 6.37 ± 1.03 | R15AB (A PPP1R15A and PPP1R15B inhibitor may be defined as a compound where the difference in KD values between R15A and R15B is no more than about 3 fold) | 11.3 |  | 
2 | [H]/N=C(\N)NN=Cc1cc(Cl)cc(Cl)c1 [Compound 34, (E)-2-(3,5-dichlorobenzylidene)hydrazine-1-carboximidamide] | 17.2 ± 1.9 | R15AB (A PPP1R15A and PPP1R15B inhibitor may be defined as a compound where the difference in KD values between R15A and R15B is no more than about 3 fold) | 31.3 ± 2 |  | 
3 | [H]/N=C(\N)NN=Cc1ccc(Cl)c(Cl)c1 [Compound 11, (E)-2-(3,4-dichlorobenzylidene)hydrazine-1-carboximidamide] | 16.2 ± 2.1 | R15AB (A PPP1R15A and PPP1R15B inhibitor may be defined as a compound where the difference in KD values between R15A and R15B is no more than about 3 fold) | 13.4 ± 0.47 |  | 
4 | [H]/N=C(\N)NN=Cc1cc(F)cc(F)c1Cl [Compound 29, (E)-2-(2-chloro-3,5-difluorobenzylidene)hydrazine-1-carboximidamide] | 7.87 ± 1.48 | R15AB (A PPP1R15A and PPP1R15B inhibitor may be defined as a compound where the difference in KD values between R15A and R15B is no more than about 3 fold) | 4.06 |  | 
5 | [H]/N=C(\N)NN=Cc1cc(F)ccc1Cl [Compound 20, (E)-2-(2-chloro-5-fluorobenzylidene)hydrazine-1-carboximidamide] | 5.67 ± 0.72 | R15AB (A PPP1R15A and PPP1R15B inhibitor may be defined as a compound where the difference in KD values between R15A and R15B is no more than about 3 fold) | 5.17 ± 0.69 |  | 
6 | [H]/N=C(\N)NN=Cc1ccccc1F [Compound 17, (E)-2-(2-fluorobenzylidene)hydrazine-1-carboximidamide] | 13 ± 0.5 | R15AB (A PPP1R15A and PPP1R15B inhibitor may be defined as a compound where the difference in KD values between R15A and R15B is no more than about 3 fold) | 18.1 ± 1.8 |  | 
7 | N=C(N)N/N=C/c1cc(Cl)c(Cl)c(Cl)c1 [Compound 3, (E)-2-(3,4,5-trichlorobenzylidene)hydrazine-1-carboximidamide] | 4.49 ± 1.47 | R15AB (A PPP1R15A and PPP1R15B inhibitor may be defined as a compound where the difference in KD values between R15A and R15B is no more than about 3 fold) | 0.149 |  | 
8 | [H]/N=C(\N)NN=Cc1c(Cl)ccc(Cl)c1Cl [Compound 31, (E)-2-(2,3,6-trichlorobenzylidene)hydrazine-1-carboximidamide] | 11.1 ± 1.6 | R15AB (A PPP1R15A and PPP1R15B inhibitor may be defined as a compound where the difference in KD values between R15A and R15B is no more than about 3 fold) | 14.3 ± 0.7 |  | 
9 | [H]/N=C(\N)NN=Cc1ccc(F)c(Cl)c1Cl [Compound 14, (E)-2-(2,3-dichloro-4-fluorobenzylidene)hydrazine-1-carboximidamide] | 5.45 ± 1.48 | R15AB (A PPP1R15A and PPP1R15B inhibitor may be defined as a compound where the difference in KD values between R15A and R15B is no more than about 3 fold) | 5.43 ± 1.26 |  | 
10 | [H]/N=C(\N)NN=Cc1cc(Cl)ccc1Cl [Compound 26, (E)-2-(2,5-dichlorobenzylidene)hydrazine-1-carboximidamide] | 23.1 ± 0.9 | R15AB (A PPP1R15A and PPP1R15B inhibitor may be defined as a compound where the difference in KD values between R15A and R15B is no more than about 3 fold) | 30 ± 2.3 |  | 
11 | [H]/N=C(\N)NN=Cc1cccc(Cl)c1Br [Compound 9, (E)-2-(2-bromo-3-chlorobenzylidene)hydrazine-1-carboximidamide] | 13.6 ± 0.8 | R15A (A “selective inhibitor” may be defined as a compound where the difference in KD values between R15A and R15B is greater than 3 fold) | 39.6 ± 5.9 |  | 
12 | [H]/N=C(\N)NN=Cc1cccc(Cl)c1Cl [Compound 16, (E)-2-(2,3-dichlorobenzylidene)hydrazine-1-carboximidamide] | 1.05 ± 0.013 | R15B (A “selective inhibitor” may be defined as a compound where the difference in KD values between R15A and R15B is greater than 3 fold) |  | 1 | 0.035
13 | [H]/N=C(\N)NN=Cc1cccc(Cl)c1 [Compound 24, (E)-2-(3-chlorobenzylidene)hydrazine-1-carboximidamide] | 18.1 ± 7.57 | R15AB (A PPP1R15A and PPP1R15B inhibitor may be defined as a compound where the difference in KD values between R15A and R15B is no more than about 3 fold) | 18.7 |  | 
